US11628171B2, “Method for treating brain or nerve injury” (CHILDREN'S MEDICAL CENTER CORPORATION, priority 2019, dated 2023)

Tested on: retinal ganglion cells
Test: Optic nerve injury model ("optic crush" model), retinal ganglion cell survival
Type: in vivo
Details: male mice, intraocular injection following optic nerve injury, 14 days after injury, compared with PBS control; difference statistically significant (FIG. 1)
Procedure: A PDE1 inhibitory compound was tested in an optic nerve injury model (i.e., the “optic crush” model). The studies described below were carried out using the selective PDE1 inhibitor IC200041, which has the following structure:
In this model, optic nerve surgeries were performed on male mice 8 weeks of age (average body weight, 20-26 g) under general anesthesia, as described previously (Yin Y, et al., Oncomodulin links inflammation to optic nerve regeneration. Proc Natl Acad Sci USA. 2009; 106:19587-19592). Following nerve injury, 3 μl of fluid was removed from the eye and a solution containing the PDE1 inhibitory compound was injected intraocularly.
A total of 4 mouse retinas were treated with the PDE1 inhibitor, and phosphate buffered saline (PBS) was administered to a total of 10 mouse retinas as a control. Mice were typically euthanized with an overdose of anesthesia 14 days after optic nerve injury and were perfused with saline and 4% paraformaldehyde (PFA). These mice were 10 weeks old when killed. Optic nerves and eyes were dissected and postfixed in PFA. […] Axons were counted manually in at least 8 longitudinal sections per case at pre-specified distances from the injury site, and these numbers were converted into the number of regenerating axons at various distances.

CN1C(=O)c2c(nn(Cc3ccc(-c4ccccn4)cc3)c2Nc2ccccc2)N2C1=N[C@@H]1CCC[C@@H]12 [IC200041]
survival of retinal ganglion cells: highly effective in increasing the survival of retinal ganglion cells
